The supplement of paper PMC10307832

Key:
Assay in all cases: relative viability (nuclei count vs DMSO), 5 days (fraction); higher = more cells survive
[1] = compound: N=C1NC(=O)/C(=C/c2ccc(O)cc2)S1 [Mirin] + C[C@]1(O)C[C@@H](c2nc(-c3ccc4ccc(-c5ccccc5)nc4c3)c3c(N)nccn32)C1 [Linsitinib] (partner 1 µM)
Procedure, shortened: (§1)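 Medians of duplicate plates are given as relative viability. That measure is the nuclei count in treated wells divided by the count in vehicle wells. Counts were taken on 4× images of lung cancer cell lines in 1536-well plates, 5 days after pin-tool dosing the day after seeding with one drug alone or a fixed anchor-drug dose plus five library-drug doses (not always all listed) in √10 steps.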

[2] = compound: CCn1c(-c2nonc2N)nc2cnc(Oc3cccc(NC(=O)c4ccc(OCCN5CCOCC5)cc4)c3)cc21 + CS(=O)(=O)CCNCc1ccc(-c2ccc3ncnc(Nc4ccc(OCc5cccc(F)c5)c(Cl)c4)c3c2)o1 [Lapatinib] (partner 2 µM)
Procedure, shortened: as §1

[3] = compound: CCC1=CN=CN=C1N2CCN(CC2)CC3=NC4=C(N3)C=C(C=C4)C(F)(F)F + CS(=O)(=O)N1CCN(Cc2cc3nc(-c4cccc5[nH]ncc45)nc(N4CCOCC4)c3s2)CC1 [Pictilisib] (partner 1 µM)
Procedure, shortened: as §1

[4] = compound: N=C1NC(=O)/C(=C/c2ccc(O)cc2)S1 [Mirin] + CC1(C)CCC(c2ccc(Cl)cc2)=C(CN2CCN(c3ccc(C(=O)NS(=O)(=O)c4ccc(N[C@H](CCN5CCOCC5)CSc5ccccc5)c(S(=O)(=O)C(F)(F)F)c4)cc3)CC2)C1 [Navitoclax] (partner 0.5 µM)
Procedure, shortened: as §1

| Cell Line | relative viability ([1]; first compound 0.25 µM) | relative viability ([1]; first compound 0.7906 µM) | relative viability ([1]; first compound 2.5 µM) | relative viability ([1]; first compound 25 µM) | relative viability ([2]; first compound 0.04 µM) | relative viability ([2]; first compound 0.1265 µM) | relative viability ([2]; first compound 0.4 µM) | relative viability ([2]; first compound 1.265 µM) | relative viability ([2]; first compound 4 µM) | relative viability ([3]; first compound 0.04 µM) | relative viability ([3]; first compound 0.1265 µM) | relative viability ([3]; first compound 0.4 µM) | relative viability ([3]; first compound 1.265 µM) | relative viability ([3]; first compound 4 µM) | relative viability ([4]; first compound 0.25 µM) | relative viability ([4]; first compound 0.7906 µM) | relative viability ([4]; first compound 2.5 µM) | relative viability ([4]; first compound 7.906 µM) | relative viability ([4]; first compound 25 µM) | relative viability ([1]; first compound 7.906 µM) |
| --- | --- | --- | --- | --- | --- | --- | --- | --- | --- | --- | --- | --- | --- | --- | --- | --- | --- | --- | --- | --- |
| IA-LM | 0.754 | 0.584 | 0.789 | 0.87 | 1.14 | 0.915 | 1.11 | 0.913 | 0.909 | 0.409 | 0.33 | 0.323 | 0.325 | 0.3 | 0.835 | 0.899 | 0.705 | 0.498 | 0.752 | – |
| NCI-H1703 | 0.797 | 0.353 | 0.967 | 0.916 | 1.2 | 0.939 | 0.715 | 0.376 | 0.361 | 0.238 | 0.277 | 0.263 | 0.232 | 0.227 | 1.27 | 1.21 | 1.26 | – | 0.685 | – |
| NCI-H727 | 0.328 | 0.39 | 0.3 | 0.333 | 1.12 | 0.894 | 0.339 | 0.868 | 0.569 | 0.521 | 0.377 | 0.29 | – | 0.382 | 0.518 | 0.473 | 0.393 | 0.728 | 0.454 | 0.383 |
| NCI-H23 | 0.618 | – | 0.573 | 0.543 | 1.34 | 1.17 | – | 0.688 | 0.698 | 0.58 | 0.439 | 0.41 | 0.348 | 0.432 | 0.941 | – | 0.783 | 0.682 | 0.71 | 0.612 |
| NCI-H1395 | 1.13 | – | 1.07 | 0.901 | 1.22 | 0.92 | 0.632 | 0.418 | 0.57 | 0.59 | 0.553 | 0.619 | 0.572 | 0.646 | 1.24 | – | 1.12 | 1.04 | 1.09 | 1.05 |
| NCI-H596 | 0.975 | 0.919 | 1.03 | 0.902 | 1.04 | 0.942 | 0.978 | 0.87 | 0.97 | 0.399 | 0.366 | 0.396 | 0.327 | 0.413 | 0.966 | 0.855 | 0.96 | 1.15 | 0.962 | 1.11 |
| NCI-H460 | 0.809 | 0.759 | 0.764 | 0.474 | 1.93 | 0.994 | 0.656 | 0.202 | 0.299 | 0.41 | 0.291 | 0.36 | 0.224 | 0.395 | 1.18 | 1.27 | 1.19 | 1.06 | 0.913 | 0.649 |
